{"source": "patent US20220023269A1", "about": "“Methods Of Treating Diabetes In Severe Insulin-Resistant Diabetic Subjects” (Balticgruppen Bio AB, priority 2018, published 2022)", "key": {"AMPK in HeLa cells": {"tested_on": "AMPK in HeLa cells", "assay": "AMPK activation assay in HeLa cells (LKB1 null)", "type": "cell-based, human", "details": "LKB1 null cells; 2.5, 5 or 10 μM, 4 hours", "description": "All cell lines were lysed in 0.1 M Tris-HCl, pH 6.8, 2% SDS, 10 mM sodium fluoride (SIGMA #S7920), 10 mM β-glycerophosphate (SIGMA #G6376), and 1 mM sodium vanadate (SIGMA #72060) and supernatant collected after 1 minute at 14,000 rpm. Islets (human and mouse) were lysed in 0.1 M Tris-HCl, pH 6.8, 2% SDS, protease inhibitor (Roche #04 693 124 001) and phosphatase inhibitor (Roche #04 906 837 001). Right calf muscle, heart, iWAT, and interscapular BAT was crushed in a pestle using liquid nitrogen and homogenised in ice cold RIPA buffer (150 mM sodium chloride (SIGMA #S7653), 1.0% NP40 (USB), 0.5% sodium deoxycholate (SIGMA #D6750), 0.1% SDS, 50 mM Tris pH 8.0, 20 mM sodium pyrophosphate (SIGMA #71515), 10 mM sodium fluoride, 10 mM β-glycerolphosphate, 1 mM sodium vanadate and protease inhibitor cocktail (Roche #04693124001), 1 tablet/10 ml lysis buffer). The supernatant was collected after 2 min at 14,000 rpm. This procedure was repeated until all fat was eliminated and the supernatant was clear, at 4° C. Samples were analysed on 4-15% polyacrylamide gels. Values were normalised toward AMPKα, β-Actin, GAPDH or the respective non-phosphorylated counterpart.\nTable 3 contains origin of cell lines, growth conditions and settings for activation of AMPK via the test material. […]"}, "[1]": {"tested_on": "T2D patients on Metformin", "assay": "Phase IIa clinical trial (TELLUS), 28 days", "type": "in vivo, human", "details": "for T2*-grad / Δ-T2*: group-averaged curve fitting", "description": "An exploratory proof-of-concept randomised, parallel-group, double-blinded, placebo-controlled phase IIa 28-day study (TELLUS) of the first-in-class AMPK activator (the test material; 1,000 mg/day) was conducted in 65 T2D patients on Metformin for months, aiming at further exploring safety of test material and the effect of test material on FPG at a single-dose level.\nMain inclusion criteria: Male and female patients, 18-80 years of age, with uncomplicated T2D, on stable T2D treatment with Metformin monotherapy for 3 months. HbA1c of ≥6.5% and 9.0%, and not FPG at day 1, was selected as the main inclusion criterion.\nMain exclusion criteria: History of myocardial infarction (MI), unstable angina, stroke or transient ischemic attack (TIA). Congestive heart failure defined as New York Heart Association (NYHA) class III-IV. Any clinically significant abnormalities in physical examination, ECG or clinical chemistry results, as judged by the Investigator.\nA good-manufacturing practice (GMP) batch of 5 kg test material was manufactured by Anthem BioSciences Pvt.Ltd, Bangalore, Karnataka, India. The suspension is composed of test material 20 mg/ml in 2% methylcellulose in phosphate buffer. A 2% methylcellulose suspension that colour matched the active product was used as placebo. The test material and placebo suspensions were manufactured, packaged and labelled by Recipharm Pharmaceutical Development AB, Solna, Sweden.\nSixty-five (65) patients were randomised (1:1) to treatment with either the material or placebo. A screening visit (Visit 1) was performed within 3 weeks before randomisation and the start of IMP administration. Patients were randomised on Day 1 (Visit 2) and allocated to 28 days' treatment with either test material or placebo (1:1). Study visits to the clinic were performed 7, 14, 21, 28, 29 and 40 days (Visits 3 to 8) following randomisation and start of treatment. The patients were confined to the research clinic from the evening before Day 1 and Day 28 (Day −1 and Day 27, respectively) to ensure fasting conditions before samples for analyses of FPG were collected. Magnetic Resonance Imaging (MRI) scans after screening but before day 1 and after end of treatment were performed at the University Hospital in Uppsala, Sweden, according to standardised methods. Antaros Medical in Uppsala performed the data analysis. A clinical read of the acquired scans was performed by a radiologist at Antaros Medical. If clinically significant findings were noted by the radiologist, the Investigator was notified of the finding. The Investigator was to evaluate and handle the finding as per standard medical/clinical judgment.\nAny findings were reported as either baseline events or adverse events, if they started, or worsened after administration of the first dose of IMP. The method used for assessing microvascular function in the calf muscle, (a proxy for oxygenation), include a dynamic MRI investigation of T2* determination before during and after reactive hyperemia (Reference 4). Sixty five (65) patients were randomised, 32 patients in the placebo group and 33 in the test material group, and 59 patients completed the study (28 and 31 in the two groups, respectively). HbA1c of 6.5% and 9.0%, and not FPG at day 1, was used as the inclusion criterion since MRI examinations had to be performed after screen but before day 1."}, "[2]": {"details": "subjects with long TTP at baseline"}}}
{"smiles": "O=C(Nc1nc(=O)n(Cc2ccc(Cl)cc2)s1)c1ccc(Cl)cc1", "note": "[test material, 4-chloro-N-[2-[(4-chlorophenyl)methyl]-3-oxo-1,2,4-thiadiazol-5-yl]benzamide]", "values": [{"measurement": "basal levels of pAMPK and pACC", "setting": "AMPK in HeLa cells", "value": "failed to increase"}, {"measurement": "mean absolute reduction in diastolic blood pressure, day 28 vs day 1", "setting": "[1]; 1,000 mg/day", "value": "−3.8", "unit": "mmHg"}, {"measurement": "mean absolute reduction in systolic blood pressure, day 28 vs day 1", "setting": "[1]; 1,000 mg/day", "value": "−5.8", "unit": "mmHg"}, {"measurement": "tolerability", "setting": "[1]; 1,000 mg/day, 28 days", "value": "well tolerated"}, {"measurement": "HOMA-IR at day 28 compared with day 1", "setting": "[1]; 1,000 mg/day, Wilcoxon test within group", "value": "statistically significant both absolute (P=0.0097) and relative (P=0.017) reduction"}, {"measurement": "change in mean heart rate at day 28 compared with baseline", "setting": "[1]; 1,000 mg/day, not significant", "value": "−1.6", "unit": "bpm"}, {"measurement": "mean absolute reduction in FPG at day 28 compared with day 1", "setting": "[1]; 1,000 mg/day, post hoc, FPG >7 to <13.3 mmol/l at day 1", "value": -0.60, "unit": "mM"}, {"measurement": "T2*-grad", "setting": "[1]; MR1 (screening/baseline)", "value": 0.528, "unit": "min⁻¹"}, {"measurement": "Δ-T2*", "setting": "[1]; MR1 (screening/baseline)", "value": 0.072}, {"measurement": "T2*-grad", "setting": "[1]; MR2 (day 27-29)", "value": 0.665, "unit": "min⁻¹"}, {"measurement": "Δ-T2*", "setting": "[1]; MR2 (day 27-29)", "value": 0.081}, {"measurement": "plasma t1/2", "setting": "[1]; T2D patients", "value": "long"}, {"measurement": "time to plasma steady-state concentration", "setting": "[1]; T2D patients", "value": "≥ 14", "unit": "days"}, {"measurement": "T2*-gradient at day 28 compared with baseline", "setting": "[1]; individual curve fitting, Wilcoxon within group", "value": "significant relative increase"}, {"measurement": "Δ−T2* (hyperemic perfusion) at day 28 compared with baseline", "setting": "[1]; individual curve fitting, vs placebo, 2-way ANOVA", "value": "statistically significant increase"}, {"measurement": "time-to-peak (TTP), MRI1 vs MRI2", "setting": "[1]; [2]", "value": "significant shortening of TTP"}, {"measurement": "Δ−T2*, MRI1 vs MRI2", "setting": "[1]; [2]", "value": "increase"}]}
